Where “and” joins values, the source holds several entries; their conditions need not be identical. Equal values may be shown once.
System: A498 complex spheroid viability
Test: Anticancer human tumor A498 cell line growth inhibition;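 also: spheroids exposed to agents for seven days before readout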;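 as to viability, T/C: 100% = DMSO vehicle-treated spheroids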
Settings: for viability, T/C: stronger effect = lower value; active = viability on the fitted dose curve at most 10% of control; inactive = the rest
Description: Multicellular complex tumor spheroid response to LSD1 Inhibitor Iadademstat in combination with a variety of drugs and investigational agents in selected tumor cell lines
The current study was undertaken to assess response to LSD1 inhibitors in combination with standard-of-care drugs and investigational agents in solid tumor complex spheroid models as well as in the K-562 leukemia. Complex spheroids include a stromal component modeled by human endothelial cells (HUVEC) and fibroblasts modeled by human mesenchymal stem cells (MSCs). The concentration ranges selected for each drug and investigational agent were based upon clinically achievable concentrations if the clinical Cmax of the agent was known.
Compounds. The drugs and investigational agents used in this study are listed on Table 1. All of the agents used, including staurosporine (NSC755774) and gemcitabine (NSC613327), were obtained from the Developmental Therapeutics Program, NCI. FDA-approved anticancer drugs are available from the NCI at http://dtp.nci.nih.gov/branches/dscb/oncology_drugset_explanation.html. Drugs and investigational agents were >95% pure by proton nuclear magnetic resonance (NMR) and liquid chromatography/mass spectrometry (LC/MS). Stock solutions were prepared at 400x in DMSO, stored at -70 degrees C, and diluted in fresh medium prior to their use. The final concentration of DMSO in cell culture wells never exceeded 0.25% (v/v). The FDA-approved anticancer drug set is available from the Developmental Therapeutics Program at https://dtp.cancer.gov/organization/dscb/obtaining/available_plates.htm. All drugs and investigational agents were tested over a range starting from a high concentration at or near the clinical Cmax and decreasing in half-log increments. If the clinical Cmax for an agent had not been determined, the highest concentration tested was 10 microM.
Cell Lines. The patient-derived cancer cell (PDC) lines: 292921-168-R-J2-PDC, K24384-001-R-PDC, and 521955-158-R2-J5-PDC pancreatic carcinomas, 556581-035-R-J1 ovarian carcinoma, 324938-238-R-J1-PDC, 855422-203-R-J1-PDC and 883617-216-R-J1-PDC urothelial bladder carcinomas, 743489-274-T-PDC renal cell carcinoma, 138582-R-J1 Merkel cell tumor, K60290-347-R-J1 and K57222-313-R-J1-PDC glioblastomas, 653999-131-R-J2-PDC, LG0703-F948-PDC, and 349418-098-R-PDC non-small cell lung carcinomas, 885512-296-R-J2-PDC, 171881-019-R-J1-PDC breast carcinomas and 186277-243-T-J2-PDC and 233499-124-R-J2-PDC colon carcinomas were obtained from the NCI Patient-Derived Models Repository (PDMR, https://pdmr.cancer.gov). The established cell lines NCI/ADR-RES (RRID:CVCL_14520 and OVCAR-5 (RRID:CVCL_1628) ovarian carcinomas, 786-O (RRID:CVCL_1051) and A498 (RRID:CVCL_A498) renal cell carcinoma, NCI-H211 (ATCC, cat. CRL-5824; RRID:CVCL_1529), NCI-H196 (ATCC, cat. CRL-5823, RRID:CVCL_1509), SW 1271 (ATCC, cat. CRL-2177, RRID:CVCL_1716) and NCI-H1876 (ATCC, cat. CRL-5902, RRID:CVCL_1503) small cell lung carcinomas, MDA-MB-231 (RRID:CVCL_0062) and MDA-MB-468 (RRID:CVCL_0419)breast carcinomas (10-12). Pooled donor human umbilical vein endothelial cells (HUVEC, Lonza, cat. CC-2519) and human mesenchymal stem cells (hMSC, Lonza, cat. PT-2501) were purchased from Lonza (Walkersville, MD).
Cell Culture. All cells were maintained in an incubator at 37 degrees C and 5% CO2 with 95% humidity. The PDC lines were cultured according to standard operating procedures established by the NCI PDMR (https://pdmr.cancer.gov). Briefly all PDCs were thawed and cultured in Matrigel-coated flasks prepared with a working solution of 1X Ham's F-12 nutrient mix, without supplementation (Invitrogen, Waltham, MA, cat. 11765054), 100 U/mL penicillin-streptomycin (Invitrogen, cat. 15140122), and 2.5% Matrigel (Corning Inc., Corning, NY, cat. 354248) for the first three passages. […]

[1] = curve of first compound, second compound 0.1 µM
[2] = curve of first compound, second compound 0.316 µM
[3] = curve of first compound, second compound 1 µM
[4] = curve of first compound, second compound 3.16 µM
[5] = curve of first compound, second compound 10 µM
[6] = second compound 0.1 µM, first compound 0.00949 µM
[7] = second compound 0.1 µM, first compound 0.03 µM
[8] = second compound 0.1 µM, first compound 0.0949 µM
[9] = second compound 0.1 µM, first compound 0.3 µM
[10] = second compound 0.1 µM, first compound 0.949 µM
[11] = second compound 0.1 µM, first compound 3 µM
[12] = second compound 0.316 µM, first compound 0.00949 µM
[13] = second compound 0.316 µM, first compound 0.03 µM
[14] = second compound 0.316 µM, first compound 0.0949 µM
[15] = second compound 0.316 µM, first compound 0.3 µM
[16] = second compound 0.316 µM, first compound 0.949 µM
[17] = second compound 0.316 µM, first compound 3 µM
[18] = second compound 1 µM, first compound 0.00949 µM
[19] = second compound 1 µM, first compound 0.03 µM
[20] = second compound 1 µM, first compound 0.0949 µM
[21] = second compound 1 µM, first compound 0.3 µM
[22] = second compound 1 µM, first compound 0.949 µM
[23] = second compound 1 µM, first compound 3 µM
[24] = second compound 3.16 µM, first compound 0.00949 µM
[25] = second compound 3.16 µM, first compound 0.03 µM
[26] = second compound 3.16 µM, first compound 0.0949 µM
[27] = second compound 3.16 µM, first compound 0.3 µM
[28] = second compound 3.16 µM, first compound 0.949 µM
[29] = second compound 3.16 µM, first compound 3 µM
[30] = second compound 10 µM, first compound 0.00949 µM
[31] = second compound 10 µM, first compound 0.03 µM
[32] = second compound 10 µM, first compound 0.0949 µM
[33] = second compound 10 µM, first compound 0.3 µM
[34] = second compound 10 µM, first compound 0.949 µM
[35] = second compound 10 µM, first compound 3 µM

COc1cc(C2c3cc4c(cc3C(OC3OC5COC(C)OC5C(O)C3O)C3COC(=O)C23)OCO4)cc(OC)c1O (configuration not stated) + NC1CCC(NC2CC2c2ccccc2)CC1
2.33 µM: IC50 [4]
> 3 µM: IC50 [1] | IC50 [2] | IC50 [3]
1.42 µM: IC50 [5]
inactive: viability, T/C [6] 81.8% | viability, T/C [7] 67.1% | viability, T/C [8] 59.9% | viability, T/C [9] 58.5% | viability, T/C [10] 55.7% | viability, T/C [11] 54.5% | viability, T/C [12] 79.4% | viability, T/C [13] 71.2% | viability, T/C [14] 70.3% | viability, T/C [15] 67.5% | viability, T/C [16] 59.6% | viability, T/C [17] 57.5% | viability, T/C [18] 82% | viability, T/C [19] 69.3% | viability, T/C [20] 68.6% | viability, T/C [21] 62.9% | viability, T/C [22] 57.6% | viability, T/C [23] 57.2% | viability, T/C [24] 72.5% | viability, T/C [25] 69.6% | viability, T/C [26] 63.5% | viability, T/C [27] 60.7% | viability, T/C [28] 52.5% | viability, T/C [29] 49.2% | viability, T/C [30] 64.3% | viability, T/C [31] 66.8% | viability, T/C [32] 61.5% | viability, T/C [33] 63.4% | viability, T/C [34] 48.8% | viability, T/C [35] 45.3%

Nc1ccccc1NC(=O)c1ccc(CNC(=O)OCc2cccnc2)cc1 + NC1CCC(NC2CC2c2ccccc2)CC1
0.214 µM: IC50 [5]
0.177 µM: IC50 [4]
0.203 µM: IC50 [1]
0.215 µM: IC50 [3]
inactive: viability, T/C [6] 80.6% | viability, T/C [7] 76% | viability, T/C [8] 65.8% | viability, T/C [9] 42.1% | viability, T/C [10] 15.4% | viability, T/C [12] 86.7% | viability, T/C [13] 83.8% | viability, T/C [14] 66.4% | viability, T/C [15] 44.6% | viability, T/C [16] 17% | viability, T/C [18] 76.8% | viability, T/C [19] 79.6% | viability, T/C [20] 68.4% | viability, T/C [21] 40.9% | viability, T/C [22] 17.2% | viability, T/C [24] 73.6% | viability, T/C [25] 67.3% | viability, T/C [26] 59.8% | viability, T/C [27] 42.7% | viability, T/C [28] 16% | viability, T/C [30] 62% | viability, T/C [31] 59.3% | viability, T/C [32] 57.4% | viability, T/C [33] 47% | viability, T/C [34] 16.3%
active: viability, T/C [11] 1.76% | viability, T/C [17] 1.4% | viability, T/C [23] 1.13% | viability, T/C [29] 0.8% | viability, T/C [35] 0.91%
0.222 µM: IC50 [2]

CC(C)CC(NC(=O)C(Cc1ccccc1)NC(=O)c1cnccn1)B(O)O (configuration not stated)
active: viability, T/C (compound 0.00316 µM) 3.38% and 2.52% | viability, T/C (compound 0.01 µM) 0.64% and 0.86% | viability, T/C (compound 0.0316 µM) 0.57% and 0.5% | viability, T/C (compound 0.1 µM) 0.31% and 0.36%
inactive: viability, T/C (compound 0.000316 µM) 103% | viability, T/C (compound 0.001 µM) 59.9% and 22.5%
0.00122 µM and 0.000674 µM: IC50 (curve of compound)

COc1cc(Nc2ncc3c(n2)-c2ccc(Cl)cc2C(c2c(F)cccc2OC)=NC3)ccc1C(=O)O + NC1CC1c1ccc(-c2cccc(O)c2)cc1
0.185 µM: IC50 [1]
0.0654 µM: IC50 [5]
0.0346 µM: IC50 [4]
inactive: viability, T/C (second compound 0.1 µM, first compound 0.00316 µM) 76.7% | viability, T/C (second compound 0.1 µM, first compound 0.01 µM) 65.5% | viability, T/C (second compound 0.1 µM, first compound 0.0316 µM) 58.5% | viability, T/C (second compound 0.1 µM, first compound 0.1 µM) 54% | viability, T/C (second compound 0.1 µM, first compound 0.316 µM) 49.4% | viability, T/C (second compound 0.1 µM, first compound 1 µM) 41% | viability, T/C (second compound 0.316 µM, first compound 0.00316 µM) 85.2% | viability, T/C (second compound 0.316 µM, first compound 0.01 µM) 72.3% | viability, T/C (second compound 0.316 µM, first compound 0.0316 µM) 66.9% | viability, T/C (second compound 0.316 µM, first compound 0.1 µM) 56% | viability, T/C (second compound 0.316 µM, first compound 0.316 µM) 52.1% | viability, T/C (second compound 0.316 µM, first compound 1 µM) 39.9% | viability, T/C (second compound 1 µM, first compound 0.00316 µM) 78.7% | viability, T/C (second compound 1 µM, first compound 0.01 µM) 60.7% | viability, T/C (second compound 1 µM, first compound 0.0316 µM) 58% | viability, T/C (second compound 1 µM, first compound 0.1 µM) 48.2% | viability, T/C (second compound 1 µM, first compound 0.316 µM) 44.8% | viability, T/C (second compound 1 µM, first compound 1 µM) 34.6% | viability, T/C (second compound 3.16 µM, first compound 0.00316 µM) 71.1% | viability, T/C (second compound 3.16 µM, first compound 0.01 µM) 53.8% | viability, T/C (second compound 3.16 µM, first compound 0.0316 µM) 52.6% | viability, T/C (second compound 3.16 µM, first compound 0.1 µM) 46.4% | viability, T/C (second compound 3.16 µM, first compound 0.316 µM) 42.2% | viability, T/C (second compound 3.16 µM, first compound 1 µM) 36.9% | viability, T/C (second compound 10 µM, first compound 0.00316 µM) 76.6% | viability, T/C (second compound 10 µM, first compound 0.01 µM) 59.3% | viability, T/C (second compound 10 µM, first compound 0.0316 µM) 54.1% | viability, T/C (second compound 10 µM, first compound 0.1 µM) 50.8% | viability, T/C (second compound 10 µM, first compound 0.316 µM) 40.1% | viability, T/C (second compound 10 µM, first compound 1 µM) 31.6%
0.282 µM: IC50 [2]
0.0806 µM: IC50 [3]

From PubChem BioAssay AID1918947 (Molecular Pharmacology Branch, DTP, NCI, 2023)
